# Measured values reported in PubChem BioAssay AID977605 (Broad Institute, 2014).
# Active and inactive are the calls of the source.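 The calls were made as follows: active = fitted curve reaches 40% activation below the top valid tested dose, in every test run; inconclusive = test runs disagree on the call; inactive = the rest, including effects opposite to the expected direction.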
# Assay: endothelial E-selectin upregulation by compounds – imaging, HUVEC, cherry-picked samples, dose response (AID 977605);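 also: signal is the share of imaged cells scored positive for E-selectin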
# Details: HUVEC E-selectin immunostaining, at 19.5 µM (top of the series), percent of TNF-alpha response over vehicle
row,SMILES,activation
1,C[C@@H]1CN([C@H](C)CO)C(=O)c2cc(NC(=O)CCC(F)(F)F)ccc2O[C@@H]1CN(C)Cc1ccc(C(F)(F)F)cc1,0.048% (inactive)
2,COc1ccccc1N(C(=O)c1snc(C(N)=O)c1N)C(C(=O)NCc1ccccc1)c1ccc(C)o1 (centres undefined),-0.235% (inactive)
3,Cc1noc(C)c1S(=O)(=O)N(C)C[C@@H]1Oc2ccc(NC(=O)Nc3ccc(F)cc3)cc2CC(=O)N([C@H](C)CO)C[C@H]1C,-0.155% (inactive)
4,C[C@H]1CN([C@@H](C)CO)C(=O)c2cc(NC(=O)CCN3CCOCC3)ccc2O[C@@H]1CN(C)Cc1ccncc1,0.277% (inactive)
5,CC(C)CC#Cc1ccc2c(c1)O[C@H](CN(C)C(=O)c1ccccc1)[C@H](C)CN([C@@H](C)CO)S2(=O)=O,-0.183% (inactive)
6,O=C1Nc2ccccc2C1Cc1ccccn1 (centres undefined),-0.092% (inactive)
7,COc1cc(CC2C(=O)Nc3ccccc32)cc(C)c1O (centres undefined),36.1% (inactive)
8,C[C@H]1CN([C@@H](C)CO)C(=O)c2cccc(NS(=O)(=O)c3ccc(F)cc3)c2O[C@H]1CN(C)S(=O)(=O)c1cccs1,-0.103% (inactive)
9,C[C@H]1CN([C@@H](C)CO)C(=O)Cc2cc(NC(=O)c3ccncc3)ccc2O[C@H]1CN(C)Cc1ccc(C(=O)Nc2ccccc2N)cc1,6.93% (inactive)
10,CC(Sc1ncnc2sc(-c3ccccc3)cc12)C(=O)N1CCNC1=O (centres undefined),0.007% (inactive)
11,O=C(COc1ccc(Cl)cc1)Nc1nnc(S(=O)(=O)N2CCCCCC2)s1,1.11% (inactive)
12,O=C(NC1CCCC1)C(c1ccc(F)cc1)N(C(=O)c1csnn1)c1ccccc1 (centres undefined),0.654% (inactive)
13,COc1ccc(C)cc1NC(=O)C(NCC(O)c1ccccc1)c1ccccc1 (centres undefined),-0.094% (inactive)
14,CC(C)CC#Cc1cnc2c(c1)C(=O)N([C@H](C)CO)C[C@@H](C)[C@H](CN(C)C(=O)c1ccc3c(c1)OCO3)O2,-0.021% (inactive)
15,Cc1cc(C)cc(NC(=O)Nc2ccc(-n3ccc(C(F)(F)F)n3)cc2)c1,0.075% (inactive)
16,CC(C)(C)CC(=O)Nc1ccc(-c2cn3cccnc3n2)cc1,0.057% (inactive)
17,CS(=O)(=O)N1CCc2cc(C(=O)NC3CC3)ccc21,0.099% (inactive)
18,Cc1ccc(CSc2nc3[nH]ncc3c(=O)[nH]2)cc1,24.6% (inactive)
19,C[C@@H]1CN([C@@H](C)CO)C(=O)c2cccc(NC(=O)CCCCCC(=O)Nc3ccccc3N)c2O[C@H]1CN(C)S(=O)(=O)c1cn(C)cn1,0.292% (inactive)
20,COc1ccc(CN(C)C[C@H]2Oc3ccc(N(C)C)cc3CC(=O)N([C@H](C)CO)C[C@H]2C)cc1,0.315% (inactive)
21,C[C@H](CO)N1C[C@H](C)[C@@H](CN(C)S(=O)(=O)c2ccc(Cl)cc2)Oc2ccc(NS(=O)(=O)c3ccc(F)cc3)cc2CC1=O,-0.113% (inactive)
22,O=C(Nc1cccc(S(=O)(=O)NCc2ccco2)c1)c1cccc(Cl)c1,0.285% (inactive)
23,C[C@@H]1CN([C@H](C)CO)C(=O)c2cccc(NS(C)(=O)=O)c2O[C@@H]1CN(C)C(=O)Nc1cccc2ccccc12,-0.133% (inactive)
24,C[C@@H]1CN([C@H](C)CO)C(=O)c2cc(NS(=O)(=O)c3ccccc3)ccc2O[C@@H]1CN(C)C(=O)NC1CCCCC1,-0.139% (inactive)
25,C[C@@H]1CN([C@@H](C)CO)C(=O)Cc2cc(NC(=O)Cn3cnnn3)ccc2O[C@H]1CN(C)C(=O)Nc1ccc(F)cc1,0.031% (inactive)
26,C[C@@H]1CN([C@@H](C)CO)C(=O)c2cc(C#CC3CC3)cnc2O[C@@H]1CN(C)C(=O)c1ccccc1,-0.295% (inactive)

# Same assay, conditions: HUVEC E-selectin immunostaining, at 21 µM (top of the series), percent of TNF-alpha response over vehicle
row,SMILES,activation
1,C[C@@H]1CN([C@H](C)CO)C(=O)c2cc(NS(=O)(=O)c3cn(C)cn3)ccc2O[C@@H]1CN(C)C(=O)Nc1ccc2c(c1)OCO2,-0.098% (inactive)
2,C[C@H]1CN([C@@H](C)CO)C(=O)c2cccc(NS(=O)(=O)c3cccs3)c2O[C@@H]1CN(C)Cc1ccc(C(=O)Nc2ccccc2N)cc1,-0.225% (inactive)
3,CC(C)NC(=O)Nc1ccc2c(c1)CC(=O)N([C@H](C)CO)C[C@@H](C)[C@@H](CN(C)Cc1ccc(Cl)c(Cl)c1)O2,0.047% (inactive)
